Assay results taken from ChEMBL document CHEMBL1201862, “PubChem BioAssay data set” (2004).
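Following 48 hours of exposure in 96-well plates, responses at five concentrations were used to interpolate endpoints linearly. At the GI50, growth is halved.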 Calls of active or inactive are those of the source. No stated cut-off is given here; in the data, active = GI50 up to about 1.1 µM and inactive = higher.

Assays:
Assay in all cases: growth of human tumour cells (NCI), 48 h
ACHN = tested on: ACHN
CAKI-1 = tested on: CAKI-1
DLD-1 = tested on: DLD-1
EKVX = tested on: EKVX
HCT-116 = tested on: HCT-116
HCT-15 = tested on: HCT-15
HOP-62 = tested on: HOP-62
HT-29 = tested on: HT-29
K562 = tested on: K562
KM12 = tested on: KM12
Malme-3M = tested on: Malme-3M
OVCAR-3 = tested on: OVCAR-3
OVCAR-5 = tested on: OVCAR-5
OVCAR-8 = tested on: OVCAR-8
SF-268 = tested on: SF-268
SK-MEL-28 = tested on: SK-MEL-28
SK-MEL-5 = tested on: SK-MEL-5
SK-OV-3 = tested on: SK-OV-3
SN12C = tested on: SN12C
UACC-62 = tested on: UACC-62

Structure (SMILES) | GI50 (ACHN) | GI50 (CAKI-1) | GI50 (DLD-1) | GI50 (EKVX) | GI50 (HCT-116) | GI50 (HCT-15) | GI50 (HOP-62) | GI50 (HT-29) | GI50 (K562) | GI50 (KM12) | GI50 (Malme-3M) | GI50 (OVCAR-3) | GI50 (OVCAR-5) | GI50 (OVCAR-8) | GI50 (SF-268) | GI50 (SK-MEL-28) | GI50 (SK-MEL-5) | GI50 (SK-OV-3) | GI50 (SN12C) | GI50 (UACC-62)
CC1(C)C(=O)N(c2ccccc2)C(=O)N1c1nc2ccccc2[nH]1 | > 100 µM (inactive) | > 100 µM (inactive) | > 100 µM (inactive) | > 100 µM (inactive) | 37.4 µM (inactive) | 94.2 µM | > 100 µM (inactive) | 65.6 µM (inactive) | 53.6 µM (inactive) | > 100 µM (inactive) | > 100 µM (inactive) | > 100 µM (inactive) | > 100 µM (inactive) | > 100 µM (inactive) | > 100 µM (inactive) | > 100 µM (inactive) | > 100 µM (inactive) | > 100 µM (inactive) | > 100 µM (inactive) | > 100 µM (inactive)
O=C1N[C@@H](O)[C@@H]2ON=C(c3ccccc3)[C@H]12 | > 100 µM (inactive) | > 100 µM (inactive) | > 100 µM (inactive) | > 100 µM (inactive) | > 100 µM (inactive) | > 100 µM | > 100 µM (inactive) | > 100 µM (inactive) | > 100 µM (inactive) | > 100 µM (inactive) | > 100 µM (inactive) | > 100 µM (inactive) | > 100 µM (inactive) | > 100 µM (inactive) | > 100 µM (inactive) | > 100 µM (inactive) | > 100 µM (inactive) | > 100 µM (inactive) | > 100 µM (inactive) | > 100 µM (inactive)
O=C(c1ccc(Cl)cc1)C1OC12C(=O)Nc1ccccc12 (stereo not given) | 15.1 µM (inactive) | 6.71 µM (inactive) | 2.42 µM (inactive) | 18.1 µM (inactive) | 3.61 µM (inactive) | 4.74 µM | 35.1 µM (inactive) | 8.51 µM (inactive) | 0.658 µM (active) | 15.6 µM (inactive) | 4.55 µM (inactive) | 24.6 µM (inactive) | 19.2 µM (inactive) | 12.1 µM (inactive) | 16.8 µM (inactive) | 15.2 µM (inactive) | 12.1 µM (inactive) | 25.1 µM (inactive) | 6.01 µM (inactive) | 14.8 µM (inactive)
CCCCN(Cc1ccccc1)/C(=N/C#N)N(Cc1ccccc1)Cc1ccccc1 | 12.1 µM (inactive) | 10 µM (inactive) | 24.9 µM (inactive) | 31.3 µM (inactive) | 5.16 µM (inactive) | 14.4 µM | 26.1 µM (inactive) | 10.9 µM (inactive) | 14 µM (inactive) | 10.2 µM (inactive) | 8.59 µM (inactive) | 4.3 µM (inactive) | 27 µM (inactive) | 27.9 µM (inactive) | 18.8 µM (inactive) | 29 µM (inactive) | 14.8 µM (inactive) | 30.2 µM (inactive) | 18.2 µM (inactive) | 16.1 µM (inactive)
